From ChEMBL document CHEMBL1130813, “Novel euglycemic and hypolipidemic agents: Part-2. Antioxidant moiety as structural motif” (1998)
Calls of active or inactive are those of the source. The rule behind the calls is not given here.

Tests used:
Mus musculus [1] = assay: Percent reduction in plasma triglyceride level was evaluated in mice at a dose of 200 mg/kg/day p.o. for 9 days; not applicable; format: functional, organism-based
Mus musculus [2] = assay: Percent reduction in plasma blood glucose level was evaluated in mice at a dose of 200 mg/kg/day p.o. for 9 days; format: functional; conditions: route oral
Mus musculus [3] = assay: Percent reduction in plasma triglyceride level was evaluated in mice at a dose of 200 mg/kg/day p.o. for 9 days; format: functional; conditions: route oral

SMILES | Reduction (Mus musculus [1]) | Reduction (Mus musculus [2]) [%] | Reduction (Mus musculus [3]) [%]
Cc1c(C)c2c(c(C)c1O)CCC(C)(CN(C)CCOc1ccc(CC3SC(=O)NC3=O)cc1)O2 (stereo not given) | inactive | 4 | –
Cc1c(C)c2c(c(C)c1O)CCC(C)(CN(C)CCOc1ccc(/C=C3\SC(=O)NC3=O)cc1)O2.Cl (stereo not given) | – | 31 | 30
Cc1c(C)c2c(c(C)c1O)CCC(C)(CN(C)CCOc1ccc(/C=C3\SC(=O)NC3=O)cc1)O2.O=C(O)/C=C\C(=O)O (stereo not given) | – | 20 | 60
Cc1c(C)c2c(c(C)c1OCc1ccccc1)CCC(C)(CN(C)CCOc1ccc(/C=C3\SC(=O)NC3=O)cc1)O2 (stereo not given) | – | 39 | 32
CS(=O)(=O)O.Cc1c(C)c2c(c(C)c1O)CCC(C)(CN(C)CCOc1ccc(/C=C3\SC(=O)NC3=O)cc1)O2 (stereo not given) | – | 20 | 70
Cc1c(C)c2c(c(C)c1O)CCC(C)(CNCCOc1ccc(/C=C3\SC(=O)NC3=O)cc1)O2 (stereo not given) | – | 6 | 29
CC(=O)O.Cc1c(C)c2c(c(C)c1O)CCC(C)(CN(C)CCOc1ccc(/C=C3\SC(=O)NC3=O)cc1)O2 (stereo not given) | – | 11 | 31
Cc1c(C)c2c(c(C)c1O)CCC(C)(CN(C)CCOc1ccc(/C=C3\SC(=O)NC3=O)cc1)O2 (stereo not given) | – | 43 | 70
Cc1c(C)c2c(c(C)c1O)C(COc1ccc(CC3SC(=O)NC3=O)cc1)C(C)(C)O2 (stereo not given) | – | 19 | 40
CCN(CCOc1ccc(/C=C2\SC(=O)NC2=O)cc1)CC1(C)CCc2c(C)c(O)c(C)c(C)c2O1 (stereo not given) | – | 2 | 76
Cc1c(C)c2c(c(C)c1O)CCC(C)(COc1ccc(CC3SC(=O)NC3=O)cc1)O2 (stereo not given) [TROGLITAZONE] | – | 24 | 50
Cc1c(C)c2c(c(C)c1O)C(CN(C)CCOc1ccc(CC3SC(=O)NC3=O)cc1)C(C)(C)O2 (stereo not given) | – | 17 | 33
Cc1c(C)c2c(c(C)c1OCc1ccccc1)C(CN(C)CCOc1ccc(/C=C3\SC(=O)NC3=O)cc1)C(C)(C)O2 (stereo not given) | inactive | 23 | –
Cc1c(C)c2c(c(C)c1O)C(CN(C)CCOc1ccc(/C=C3\SC(=O)NC3=O)cc1)C(C)(C)O2 (stereo not given) | – | 46 | 71
Cc1c(C)c2c(c(C)c1O)C(CN(C)CCOc1ccc(/C=C3\SC(=O)NC3=O)cc1)C(C)(C)O2.O=C(O)/C=C\C(=O)O (stereo not given) | – | 35 | 33
